Laboratory results taken from patent US9353075B2, “Disubstituted beta-lactones as inhibitors of N-acylethanolamine acid amidase (NAAA)” (The Regents of the University of California, priority 2011, dated 2016).

Tests used:
[1] = molecular target: r-NAAA (Rattus norvegicus (Rat), UniProt Q5KTC7); experiment: r-NAAA inhibition, rat lung lysosomal NAAA preparation, UPLC/MS; format: biochemical
Description: Lysosomal NAAA protein preparation were obtained by homogenizing male Sprague-Dawley rat lungs (Charles River) in 20 mM Tris-HCl buffer pH 7.4 containing 0.32M sucrose. Samples were centrifuged at 800×g for 15 minutes at 4° C. Supernatants were then centrifuged at 12,000 g for 30 minutes at 4° C. Pellets were then resuspended in PBS pH 7.4 and subjected to a freeze/thaw cycle at −80° C. The suspension was finally centrifuged at 105,000×g for 1 hour at 4° C. The supernatant was then used in the enzymatic assay.
NAAA protein preparation was pre-incubated with various concentrations of test compounds or vehicle control in 100 mM NaH2PO4/Citrate buffer, 1% Triton-X, 3 mM DTT (pH 4.5) for 30 minutes at 37° C. Samples were then incubated with heptadecenoylethanolamide (50 μM, Avanti Polar Lipids) at 37° C. for 30 min. The reaction was terminated by addition of cold methanol containing heptadecanoic acid (NuCheck Prep) as internal standard. Samples were then analyzed by UPLC/MS (Acquity, Waters). Heptadecenoic and heptadecanoic acids were eluted on an Acquity UPLC BEH C18 column (50 mm length, 2.1 mm i.d., 1.7 μm pore size, Waters) isocratically at 0.5 mL/min for 1.5 min with a solvent mixture of 95% methanol and 5% water, both containing 0.25% Acetic Acid and 5 mM Ammonium Acetate. The column temperature was 40° C. Electrospray ionization was in the negative mode, capillary voltage was 0.5 kV, cone voltage was […], desolvation temperature was 500° C. N2 was used as drying gas at a flow rate of 1000 L/hour and a temperature of 500° C. The [M−H]^− ion was monitored in the selected-ion monitoring mode (m/z values: heptadecenoic acid 267.37, heptadecanoic acid 269.37). Calibration curves were generated using commercial heptadecenoic acid (NuCheck Prep). Inhibition of NAAA activity was calculated as reduction of heptadecenoic acid in the samples compared to vehicle controls. IC50 values were calculated by non-linear regression analysis of log [concentration]/inhibition curves using GraphPad Prism 5 (GraphPad Software Inc., CA—USA) applying a standard slope curve fitting.

[2] = molecular target: h-NAAA (Homo sapiens (Human), UniProt Q02083); experiment: UPLC/MS h-NAAA assay; format: biochemical
Chain of h-NAAA (Q02083 29-359): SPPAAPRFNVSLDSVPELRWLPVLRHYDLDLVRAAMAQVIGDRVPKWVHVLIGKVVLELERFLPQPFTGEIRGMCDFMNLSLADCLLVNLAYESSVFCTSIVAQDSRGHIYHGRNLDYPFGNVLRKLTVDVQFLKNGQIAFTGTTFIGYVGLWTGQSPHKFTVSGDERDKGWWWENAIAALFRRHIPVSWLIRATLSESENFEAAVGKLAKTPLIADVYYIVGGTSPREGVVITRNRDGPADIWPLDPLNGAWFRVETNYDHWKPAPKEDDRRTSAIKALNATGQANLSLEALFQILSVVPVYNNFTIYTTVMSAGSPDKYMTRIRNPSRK
Description: NAAA protein preparation (10 μg) was pre-incubated with various concentrations of test compound or vehicle control in 100 mM NaH2PO4, 100 mM Tri Sodium Citrate Dehydrate, 0.1% Triton-X 100, 3 mM DTT, pH 4.5 for 30 min at 37° C. Duplicate samples were then incubated with 50 μM C17:1 10-cis-heptadecenoylethanolamide (Avanti Polar Lipids, Alabaster, Ala.—USA) at 37° C. for 30 minutes. The reaction was terminated by the addition of 0.2 mL of cold methanol containing 1 nmol of heptadecanoic acid (NuChek Prep, Elysian, Minn.—USA) as internal standard. Samples were then analyzed by UPLC/MS. Heptadecenoic and heptadecanoic acids were eluted on an Acquity UPLC BEH C18 column (50 mm length, 2.1 mm i.d., 1.7 μm pore size, Waters) isocratically at 0.5 mL/min for 1.5 min with a solvent mixture of 95% methanol and 5% water, both containing 0.25% Acetic Acid and 5 mM Ammonium Acetate. The column temperature was 40° C. Electrospray ionization was in the negative mode, capillary voltage was 2.7 kV, cone voltage was 45 V, extractor voltage was 3 V. The source temperature was 150° C. with a desolvation temperature of 400° C. N2 was used as drying gas at a cone flow of 100 L/hour and a desolvation flow of […]. The [M−H]-ion was monitored in the selected-ion monitoring mode (m/z values: heptadecenoic acid 267.37, heptadecanoic acid 269.37). Calibration curves were generated using commercial heptadecenoic acid (NuCheck Prep) Inhibition of NAAA activity was calculated as reduction of heptadecenoic acid in the samples compared to vehicle controls. IC50 values were calculated by non-linear regression analysis of log [concentration]/inhibition curves using GraphPad Prism 5 (GraphPad Software Inc., CA—USA) applying a standard slope curve fitting.

[3] = molecular target: Acid Ceramidase (AC) (Rattus norvegicus (Rat), UniProt Q6P7S1); experiment: Acid ceramidase inhibition, recombinant rat AC, LC-MS; format: biochemical; conditions: for inhibition at 0.3 µM: read-out: r-AC % inhib. @ 0.3 μM; for inhibition at 10 µM: read-out: r-AC % inhib. @ 10 μM; for IC50: read-out: r-AC IC50
Chain of Acid Ceramidase (AC) (Q6P7S1 21-394): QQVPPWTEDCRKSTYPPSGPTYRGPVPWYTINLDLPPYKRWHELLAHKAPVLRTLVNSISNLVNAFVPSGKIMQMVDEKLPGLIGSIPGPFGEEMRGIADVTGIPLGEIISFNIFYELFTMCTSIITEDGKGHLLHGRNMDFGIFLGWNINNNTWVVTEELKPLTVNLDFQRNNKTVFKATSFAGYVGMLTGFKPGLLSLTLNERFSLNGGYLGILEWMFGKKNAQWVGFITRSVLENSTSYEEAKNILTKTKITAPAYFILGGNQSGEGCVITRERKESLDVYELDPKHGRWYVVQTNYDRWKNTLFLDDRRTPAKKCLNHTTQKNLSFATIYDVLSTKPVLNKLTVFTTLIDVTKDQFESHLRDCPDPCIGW
Description: The PCR (High Fidelity PCR Master, Roche) product was subcloned into a pEF6-[…] vector (Invitrogen) to construct a mammalian expression vector encoding […]-tagged rat AC. HEK293 cells were transfected with pEF6-rAC-[…] using Super-Fect reagent (Qiagen) and screened with G418 (0.3 mg/mL). Cells were suspended in 20 mM Tris HCl (pH 7.5) containing 0.32M sucrose, sonicated and centrifuged at 800×g for 15 minutes at 4° C. The supernatants were centrifuged again at 12,000×g for 30 minutes at 4° C. The pellets were suspended in phosphate-buffered saline (PBS) and subjected to 2 freeze-thaw cycles at -80° C. The suspensions were centrifuged at 105,000×g for 1 hour at 4° C. The supernatants containing recombinant AC were kept at -80° C. until use. Protein concentration was measured using the bicinchoninic acid (BCA) assay (Pierce). […] Reactions were stopped by addition of a mixture of chloroform/methanol (2:1, vol/vol) containing 1 nmol of heptadecanoic acid (HDA; NuChek Prep). […] HDA was eluted on an XDB Eclipse C18 column isocratically at 2.2 mL/min for 1 minute with a solvent mixture of 95% methanol and 5% water, both containing 0.25% acetic acid and 5 mM ammonium acetate. The column temperature was 50° C. Electrospray ionization (ESI) was in the negative mode, capillary voltage as 4 kV, and fragmentor voltage was 100 V. N2 was used as drying gas at a flow rate of 13 L/min and a temperature of 350° C. Nebulizer pressure was set at 60 psi. We monitored [M-H]- in the selected-ion monitoring (SIM) mode using HDA as internal standard. Calibration curves were generated using commercial lauric acid (Nu-Chek Prep; m/z=199).

[4] = tested on: DNFB-induced dermatitis; experiment: DNFB contact dermatitis in mice, ear thickness; format: in vivo, mouse; conditions: mice, PEG 400 solution, each day for 7 days; (S)-OOPP 0.1-10% w/v, compound 6 0.1%
Description: 2,4-dinitrofluorobenzene (DNFB) (Sigma-Aldrich, Italy) was dissolved in acetone. On day 1 and 2, mice (CD1, 25-30 g, Charles River, Calco, Italy) were sensitized on the skin of the abdomen with hapten (20 μL of 0.5% DNFB). After 5 days, on day 7, mice were challenged with hapten (20 μL of 0.2% DNFB) in the earlobe and treated with drugs to be tested. Control group received the vehicle used to dissolve drugs. Mice (five per group) were placed in a plastic cage. On day 8, ear thickness was determined after challenge using a caliper. Results are expressed as absolute ear thickness.
Fresh drug suspensions of compound 6 were prepared immediately before use in a vehicle consisting of petrolatum plus 5% lauric acid and given in a volume of 20 μL/mouse. Mice were treated with different concentrations of compound 6 or vehicle together with DNFB challenge on […].
Compound 6 and the reported β-lactone NAAA inhibitor (S)-OOPP (Solorzano et al., Proceedings of the National Academy of Science USA 2009, 106, 20966-20971; Solorzano et al., Journal of Medicinal Chemistry 2010, 53, 5770-5781) were tested in this model for their contact sensitivity response. Fresh drug solutions of (S)-OOPP and compound 6 were prepared immediately before use in polyethylene glycol 400 (PEG 400) and given in a volume of 20 μL/ear. Mice were treated with different concentrations of (S)-OOPP, 0.1% compound 6 or vehicle each day for 7 days. Ear thickness was determined on day 0 and every day before challenge using a caliper. Results are expressed as absolute ear thickness.
The methods included the following. Dermatitis was produced in mice using 2-4 dinitrofluorobenzene (DNFB) as described by Buckley and Nijkamp (1994), Am J Respir Grit Care Med 149:400-7. Mice were sensitized on two consecutive days with a 0.5% DNFB solution applied to the shaved abdomen. At day 8, the ears were challenged with a 0.2% DNFB solution. Ear thickness was determined by using a micrometer. Scratching was evaluated as number of episodes per 60 minutes period. Data were analysed by ANOVA followed by the Bonferroni's test. See also Hargreaves K, et al (1988), Pain 32: 77-88 for related information.

Chain of r-NAAA (Q5KTC7 34-362): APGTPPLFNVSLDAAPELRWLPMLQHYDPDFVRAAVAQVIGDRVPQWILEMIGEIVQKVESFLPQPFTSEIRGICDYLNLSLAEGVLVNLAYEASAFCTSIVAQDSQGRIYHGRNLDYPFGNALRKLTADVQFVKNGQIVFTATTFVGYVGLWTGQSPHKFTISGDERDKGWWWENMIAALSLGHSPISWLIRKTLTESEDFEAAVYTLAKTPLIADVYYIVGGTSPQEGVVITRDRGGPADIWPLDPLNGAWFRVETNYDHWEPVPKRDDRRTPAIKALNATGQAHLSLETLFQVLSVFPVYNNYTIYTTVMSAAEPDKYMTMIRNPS

SMILES	IC50 [1]	IC50 [2]	inhibition at 0.3 µM [3]	Contact sensitivity response (ear swelling) [4]	inhibition at 10 µM [3]	IC50 [3]
CC(CCCCc1ccccc1)OC(=O)N[C@H]1C(=O)O[C@H]1C (mixture of isomers) [Example 22, [(1R) and (1S)-1-methyl-5-phenyl-pentyl]-N-[(2S,3R)-2-methyl-4-oxo-oxetan-3-yl]-carbamate]	30 nM	14 nM	< 10%			
O=C(CCc1ccccc1)N[C@H]1COC1=O [(S)-OOPP, N-[(3S)-2-oxo-3-oxetanyl]-3-phenylpropanamide, reference compound]				did not inhibit contact sensitivity response		
CCCCCCCCOC(=O)N[C@H]1C(=O)O[C@H]1C [Example 2, Octyl-[(2S,3R)-2-methyl-4-oxooxetan-3-yl]-carbamate]	30 nM		< 10%			
C[C@@H]1OC(=O)[C@@H]1NC(=O)OCCCCc1ccccc1 [Example 5, 4-phenylbutyl-[(2S,3R)-2-methyl-4-oxooxetan-3-yl]-carbamate]	390 nM		< 10%			
CCCCCCC[C@H](C)OC(=O)N[C@H]1C(=O)O[C@H]1C [Example 7, [(1S)-1-methyloctyl]-N-[(2S,3R)-2-methyl-4-oxo-oxetan-3-yl]-carbamate]	16 nM	5 nM			45%	
C[C@@H]1OC(=O)[C@@H]1NC(=O)OC12CC3CC(CC(C3)C1)C2 [Example 12, Tricyclo[3.3.1.1^3,7]dec-1-yl [(2S,3R)-2-methyl-4-oxooxetan-3-yl]-carbamate]	870 nM	540 nM				
C[C@@H]1OC(=O)[C@@H]1NC(=O)OCc1ccc(-c2ccccc2)cc1 [Example 17, (4-phenylphenyl)methyl-N-[(2S,3R)-2-methyl-4-oxo-oxetan-3-yl]-carbamate]	7 nM	7 nM			30%	
C[C@@H]1OC(=O)[C@@H]1NC(=O)OCCCOCc1ccccc1 [Example 18, 3-Benzyloxypropyl-N-[(2S,3R)-2-methyl-4-oxo-oxetan-3-yl]-carbamate]	50 nM	18 nM			< 10%	
C[C@@H]1OC(=O)[C@@H]1NC(=O)OC(C)(C)CCCCc1ccccc1 [Example 25, (1,1-Dimethyl-5-phenyl-pentyl)-N-[(2S,3R)-2-methyl-4-oxo-oxetan-3-yl]-carbamate]	310 nM		< 10%			
C[C@@H]1OC(=O)[C@H]1NC(=O)OCCCCCc1ccccc1 [Example 32, 5-Phenylpentyl-N-[(2S,3S)-2-methyl-4-oxo-oxetan-3-yl]-carbamate]	480 nM					3800 nM
C[C@@H]1OC(=O)[C@@H]1NC(=O)OCCCCCC1CCCCC1 [Example 35, 5-Cyclohexylpentyl-N-[(2S,3R)-2-methyl-4-oxo-oxetan-3-yl]-carbamate]	16 nM	5 nM			< 10%	
O=C(N[C@H]1COC1=O)OCCCCCc1ccccc1 [drawing 83, reference compound]	6850 nM					1530 nM
O=C(N[C@@H]1COC1=O)OCCCCCc1ccccc1 [reference compound]	510 nM					30000 ± 2500 nM
